The record followed here is US8071587B2, “(Dihydro)imidazoiso[5,1-A]quinolines” (N. V. Organon, priority 2009, dated 2011).

Where a name gives a salt, the structure may show the parent alone.

As to `C=CCN1CCN(C(=O)c2nc(-c3cccs3)c3n2CCc2cc(OC)c(OC(C)C)cc2-3)CCC1=O` (as salt: salt) [Example 28, 4-Allyl-1-(9-isopropoxy-8-methoxy-1-thiophen-2-yl-5,6-dihydro-imidazo[5,1-a]isoquinoline-3-carbonyl)-[1,4]diazepan-5-one], the melting point (in general, the temperature of the solid-liquid transition) is 115 to 117 °C. Then `COc1cc2c(cc1Br)-c1c(-c3cccs3)nc(C(=O)N(C)C(C)(C)C)n1CC2` [Example 1j, 9-Bromo-8-methoxy-1-thiophen-2-yl-5,6-dihydro-imidazo[5,1-a]isoquinoline-3-carboxylic acid tert-butyl-methyl-amide], with 160 to 161 °C; and `COc1cc2c(cc1-c1ccccn1)-c1c(-c3cccs3)nc(C(=O)N(C)C(C)(C)C)n1CC2` [Example 2b, 8-Methoxy-9-pyridin-2-yl-1-thiophen-2-yl-5,6-dihydro-imidazo[5,1-a]isoquinoline-3-carboxylic acid tert-butyl-methyl-amide], with 176 to 177 °C. The result for `COc1cc2c(cc1-c1cccc(F)n1)-c1c(-c3cccs3)nc(C(=O)N(C)C(C)(C)C)n1CC2` [Example 2c, 9-(6-Fluoro-pyridin-2-yl)-8-methoxy-1-thiophen-2-yl-5,6-dihydro-imidazo[5,1-a]isoquinoline-3-carboxylic acid tert-butyl-methyl-amide] reads 161 to 162 °C; that for `COc1cc2c(cc1-c1cccc(NC(C)=O)c1)-c1c(-c3cccs3)nc(C(=O)N(C)C(C)(C)C)n1CC2` [Example 2f, 9-(3-Acetylamino-phenyl)-8-methoxy-1-thiophen-2-yl-5,6-dihydro-imidazo[5,1-a]isoquinoline-3-carboxylic acid tert-butyl-methyl-amide], 123 °C; that for `COc1cc2c(cc1-c1cccc(-n3cccn3)c1)-c1c(-c3cccs3)nc(C(=O)N(C)C(C)(C)C)n1CC2` [Example 2g, 8-Methoxy-9-(3-pyrazol-1-yl-phenyl)-1-thiophen-2-yl-5,6-dihydro-imidazo[5,1-a]isoquinoline-3-carboxylic acid tert-butyl-methyl-amide], 180 °C.

Compound `COc1cc2c(cc1-c1cccc(N3CCOCC3)c1)-c1c(-c3cccs3)nc(C(=O)N(C)C(C)(C)C)n1CC2` [Example 2h, 8-Methoxy-9-(3-morpholin-4-yl-phenyl)-1-thiophen-2-yl-5,6-dihydro-imidazo[5,1-a]isoquinoline-3-carboxylic acid tert-butyl-methyl-amide] displayed a melting point of 85 to 90 °C. In turn, `COc1cc2c(cc1-c1cccc(F)c1)-c1c(-c3cccs3)nc(C(=O)N(C)C(C)(C)C)n1CC2` [Example 2i, 9-(3-Fluoro-phenyl)-8-methoxy-1-thiophen-2-yl-5,6-dihydro-imidazo[5,1-a]isoquinoline-3-carboxylic acid tert-butyl-methyl-amide] registered a melting point of 165 °C.

Compound `COc1cc2c(cc1-c1cccc(N)c1)-c1c(-c3cccs3)nc(C(=O)N(C)C(C)(C)C)n1CC2` [Example 2k, 9-(3-Amino-phenyl)-8-methoxy-1-thiophen-2-yl-5,6-dihydro-imidazo[5,1-a]isoquinoline-3-carboxylic acid tert-butyl-methyl-amide] came in with a melting point of 213 °C. The compound `COc1cc2c(cc1-c1cccc(N(C)C)c1)-c1c(-c3cccs3)nc(C(=O)N(C)C(C)(C)C)n1CC2` [Example 2l, 9-(3-Dimethylamino-phenyl)-8-methoxy-1-thiophen-2-yl-5,6-dihydro-imidazo[5,1-a]isoquinoline-3-carboxylic acid tert-butyl-methyl-amide] returned a melting point of 149 °C. As for `COc1cc2c(cc1-c1c(C)noc1C)-c1c(-c3cccs3)nc(C(=O)N(C)C(C)(C)C)n1CC2` [Example 2m, 9-(3,5-Dimethyl-isoxazol-4-yl)-8-methoxy-1-thiophen-2-yl-5,6-dihydro-imidazo[5,1-a]isoquinoline-3-carboxylic acid tert-butyl-methyl-amide], the melting point is 183 to 184 °C.
